One data set has as its system LPS-stimulated PBMCs. The experiment in a line: Cytokine secretion, Cytometric Bead Array. The data set is classed as cell-based, human. The following applies: for dose-dependent effects on cytokine release from LPS-stimulated PBMCs: dose–response curves (Figure S12). The method, then:
PBMCs (1.5 × 10^6/mL) were plated in culture media in 96-well round-bottom plates. After a 60 min treatment with compounds at 37 °C and 5% CO2, cells were stimulated with LPS (Escherichia coli, O111:B4, 1 μg/mL, Sigma) for 24 h. Supernatants were then collected and analyzed for cytokine release by Human Inflammatory Cytokine Cytometric Bead Array (BD Biosciences, New Jersey, USA).

Data set [1] in a line: Metabolic stability in human liver microsomes. Format: in vitro ADME. Conditions: for half-life at 2 μM / k el at 2 μM / microsomal CLint at 2 μM: pH 7.4, human liver microsomes, 40 min. Here is the method: Metabolic stability in human liver microsomes
Microsomal incubations were carried out in 96-well plates in 5 aliquots of 30 μL each (one for each time point). Liver microsomal incubation medium comprised of phosphate buffer (100 mM, pH 7.4), MgCl2 (3.3 mM), NADPН (3 mM), glucose-6-phosphate (5.3 mM), glucose-6-phosphate dehydrogenase (0.67 units/ml) with 0.42 mg of liver microsomal protein per mL. In the control reactions, the NADPH-cofactor system was substituted with phosphate buffer. Test compounds (2 μM, final acetonitrile concentration 1.6 %) were incubated with microsomes at 37 °C, shaking at 100 rpm. Five time points over 40 min were analyzed. The reactions were stopped by adding 4 volumes of acetonitrile with internal standard to incubation aliquots, followed by protein sedimentation by centrifuging at 5500 rpm for 5 min. Each reaction was performed in duplicates. Supernatants were analyzed using the HPLC system coupled with a tandem mass spectrometer. […]

A short description of data set [2]: Human plasma protein binding, equilibrium dialysis. Format: in vitro ADME. Conditions: for % of bound compound: human plasma, 1 μM, dialysis 5 h; for recovery at 5 h, 1 µM: human, pH 7.4; for recovery at 5 h, 1 µM / Stability [%]: plasma protein binding assay. The method, then: Human plasma protein binding
The assay was performed in a multiple-use 96-well dialysis unit (HTD96b dialyzer). Each individual well unit consisted of two chambers separated by a vertically aligned dialysis membrane of predetermined pore size (MWCO 14 kDa). 125 µL of non-diluted plasma spiked with the compound (1 μM, final DMSO and acetonitrile concentration was 0.005% and 1%, respectively) was added to one chamber and the same volume of PBS buffer pH 7.4 to the other chamber. HTD96b dialyzer was incubated with shaking (250 rpm) at 37 °C, 5% CO2, and a saturating humidity (~95%) for 5 h. For samples preparation, an aliquot of the content of each chamber had been mixed with the same volume of the blank opposite matrix. In order to define non-specific loss of the compound during this assay, standard solution was created by mixing an aliquot of spiked plasma with blank buffer without dialysis. Two aliquots of the standard solution were incubated with shaking (250 rpm) at 37 °C, 5% CO2, and a saturating humidity (~95%) for 5 h (recovery samples). The other two aliquots were immediately diluted with acetonitrile and stored at 4 °C until LC-MS/MS analysis (stability samples). All samples were diluted 5-fold with 90% acetonitrile with internal standard with subsequent plasma proteins sedimentation by centrifuging at 6000 rpm for 5 min. Supernatants were analyzed using HPLC system coupled with tandem mass spectrometer. […]

Data set [3] in a line: Gastrointestinal tract parallel artificial membrane permeability (PAMPA) assay. Conditions: GIT PAMPA; for Permeability, Log10 [cm/s]: pH 7.4, 50 μM, 4 hours; for Papp at 4 h, 50 μM: pH 7.4, read-out: Pe. The data set is classed as in vitro ADME. Here is the method: Gastrointestinal tract parallel artificial membrane permeability (PAMPA) assay All steps of the PAMPA were carried out according to the pION Inc. PAMPA Explorer™ Manual. The main principle of the assay is the incubation of the compound in the donor chamber (a well in the Donor Plate) with an aqueous buffer, which is separated from the acceptor chamber (a well in the Acceptor Plate) with another buffer by a phospholipid or hydrocarbon membrane fixed on a filter support. After the test, concentrations in the corresponding donor and acceptor wells are measured, and permeability is calculated. The GIT model was simulated using the GIT-0 phospholipid mix.
Verapamil, quinidine (high permeability), and ranitidine (low permeability) were used as reference […]
All compounds were tested in triplicate. Prisma HT buffer (pH 7.4) containing 50 μM test compounds (0.5% DMSO) was added to the Donor Plate wells. Acceptor Sink Buffer was added to each well of the Acceptor Plate. Incubation was done at room temperature for 4 hours without stirring. After […]
incubation, aliquots from both plates were transferred to optic UV-Vis plates, and optic plates were read on a microplate reader in absorbance mode in the range of 230-550 nm with a 4 nm step. Then, the apparent permeability coefficient was calculated. […]
In order to define non-specific loss of the compound during this assay, standard solution was created by mixing an aliquot of spiked plasma with blank buffer without dialysis. Two aliquots of the standard solution were incubated with shaking (250 rpm) at 37 °C, 5% CO2, and a saturating humidity (~95%) for 5 h (recovery samples). The other two aliquots were immediately diluted with acetonitrile and stored at 4 °C until LC-MS/MS analysis (stability samples). All samples were diluted 5-fold with 90% acetonitrile with internal standard with subsequent plasma proteins sedimentation by centrifuging at 6000 rpm for 5 min. Supernatants were analyzed using HPLC system coupled with tandem mass spectrometer. Verapamil was used as a reference compound to control proper assay […]
Bortezomib and its analogs are known to exist as the free boronic acid as well as dimeric and trimeric boronic anhydrides. These forms interconvert rapidly in solution and are indistinguishable by routine […]
activity of such compounds. On UHPLC, the interconverting boronic species were not chromatographically resolved; however, diastereomers were at least partially separated, yielding two distinct chromatographic signals with identical mass spectra. By contrast, the bortezomib reference standard produced a single chromatographic signal, consistent with its pure enantiomeric form (see

The structures appear in SMILES notation.

On to `CC(C)C[C@H](NC(=O)[C@H](Cc1ccccc1)NC(=O)c1cnccn1)B(O)O` [bortezomib, reference compound], for which, in the data set on LPS-stimulated PBMCs, the “dose-dependent effects on cytokine release from LPS-stimulated PBMCs” value is “very comparable effects”. For the same compound, in data set [1], the half-life at 2 μM came out at 34.5 min, the k el at 2 μM was 0.000333 s⁻¹ and the microsomal CLint at 2 μM stood at 48 µL/min/mg. In data set [2], the “% of bound compound” value was 93%; the recovery at 5 h, 1 µM was 100%; the “Stability [%]” value is reported as 92%. Besides, in data set [3], the Pe worked out at 15.8 ×10⁻⁶ cm/s; the “Permeability, Log10 [cm/s]” value is -4.8 ± 0.02 Log10 [cm/s]; the Papp at 4 h, 50 μM came out at 15.8 ×10⁻⁶ cm/s.

For `O=C(N[C@@H](Cc1ccccc1)C(=O)N[C@H](B(O)O)C1CCCC1)c1cnccn1` [5l, ((R)-Cyclopentyl((S)-3-phenyl-2-(pyrazine-2-carboxamido)propanamido)methyl)boronic Acid], in the data set on LPS-stimulated PBMCs (250 nM, 1 h pretreatment, LPS 1 μg/mL, 24 h, IL-1, IL-6, IL-8, IL-10, TNF-α), the “Effect on secretion of cytokines in LPS-stimulated PBMCs” value is reported as “strongest effects”. For the same compound, in the data set with LPS-stimulated PBMCs, the “dose-dependent effects on cytokine release from LPS-stimulated PBMCs” value was “very comparable effects”. In data set [1] (compared with bortezomib), the microsomal stability result was “higher microsomal stability”. In data set [1], the half-life at 2 μM was determined as 39.4 min, the k el at 2 μM was 0.0003 s⁻¹ and the microsomal CLint at 2 μM was 42 µL/min/mg. In data set [2], the “% of bound compound” value is listed as 91%; the recovery at 5 h, 1 µM turned out to be 93%; the “Stability [%]” value is 86%. In data set [3], the Pe was 15.8 ×10⁻⁶ cm/s; the “Permeability, Log10 [cm/s]” value was -4.8 ± 0.06 Log10 [cm/s]; the Papp at 4 h, 50 μM was 15.8 ×10⁻⁶ cm/s.
